Assay [1] deals with Male Swiss mice. Put plainly: Formalin test (analgesic activity, licking time of the injected paw). Type of assay: in vivo. The conditions noted are these: p.o. 10 min before 5% formalin injection into hind paw, second phase (15-60 min), % inhibition of licking vs. control, Litchfield and Wilcoxon; for ED50: Mus musculus, po, read-out: FORMALIN TEST (ED50 p.o) Phase II. Here is the method:
The pharmacological activity of the products of the present invention was tested in vivo in formalin test model, which is known to evaluate neuropathic and inflammatory pain in animals.
The formalin test was introduced as a model of tonic pain in 1977, and has since […] been used extensively in rats and mice. In rats, formalin generates an initial phase of activity (5-10 min, phase 1), a quiescent interphase (5-10 min), and a second phase of activity (lasting 60-90 min, phase 2), and this is seen with spontaneous behaviors, firing of afferent neurons, and activity in dorsal horn neurons. Both active phases involve ongoing peripheral afferent neural activity; inflammation contributes to phase 2 activity and the interphase results from active inhibition. Responses are concentration dependent between 0.25% and 2.5%, plateau from 2.5% to 5%, and can decline at higher concentrations. Formalin also results in tissue edema, and this is longer lasting. Responses to formalin up to 2.5% are predominantly neurogenic, while at higher concentrations, responses involve a further prominent inflammatory component. Within the spinal cord, formalin increases c-Fos expression in neurons and causes activation of microglia, and these may contribute more prominently to longer term changes. Acute responses (to 90 min) may represent a model of ongoing acute pain involving inflammation and aspects of central sensitization, while longer term responses (days, weeks) may represent a model of changes involved in persistent pathological pain.
Male Swiss mice (weight range, 16-20 g) were used (n=6-8 per group).Mice were fasted for 3 hours before the administration of oral treatment with free access to drinking water before the experiment. All experiments were conducted in accordance with the “Guidelines on Ethical Standards for Investigation of Experimental Pain in Animals
Mice were housed in clear plastic chambers with a mirror placed at a 45° angle to allow an unobstructed view of the paws. Mice were injected into the dorsal surface of hind paw with 20 μl of dilute formalin (5%) using a 30-gauge needle. Treatments were administrated p.o. 10 min before formalin injection.
Nociceptive behavior was quantified measuring time spent licking the injected paw after injection.
For evaluation of antinociceptive effect of a potential drug for neuropathic pain, the quantization of the second phase of the test (15-60 min) is the most important. Controls animals were observed under identical conditions without receiving treatments before formalin injection.
For each dose of compound given the % inhibition of licking vs. control animals were calculated. ED50 was calculated using the method of Litchfield and Wilcoxon. At the end of the experiments, mice were humanely euthanized with a dose of sodium pentobarbital (150 mg/kg i.p.).

Assay [2] relates to Male Swiss mice. The assay is described as follows: Hot plate method (acute pain model). Type of assay: in vivo. As to conditions: Mus musculus, oral, 30 minutes before test, hot surface 55° C, dose producing 50% MPE, cutoff 60 seconds, read-out: HOT PLATE (ED50, p.o). As for the experimental part: The activity of some of the products was also tested using an acute pain model by using the hot plate method.
The method that was used is described by Eddy N. B. and Leimbach D. (J. Pharm. Exp. Ther. 107: 385-393, 1953). The analgesic effect of the products was evaluated analyzing the behavior of the animals on a hot surface at 55° C±1° C.
Male Swiss mice weighing 20-25 g were used. The compounds being tested were administered orally 30 minutes before starting the test.
The process consisted of placing the animals on the plate and keeping them in a Plexiglas cylinder 25 cm high and 21 cm […]. The time the animals took to jump off the hot surface was determined The animals were selected before starting the test so that those that took longer than 10 seconds to jump off (predrug latency) were not included in the group that would receive treatment.
A predrug latency time was determined before product treatment in all animals and 30 minutes after administering the product being tested, the test was repeated and the maximum time it took the animals to jump off (test latency) was again recorded.
The results are expressed in the table as ED50 that was calculated from % MPE (Maximum Posible Effect) determined as follows:
% MPE=100×(test latency−predrug latency)/(cutoff time−predrug latency)
The % MPE was measured for each compound at different dose levels (μmol/kg) and the ED50 values (dose of compound that produced 50% MPE) were obtained using a computer assisted linear regression analysis of the dose-response curve, including an analysis of variance test for linearity.
In general terms: In hot-plate and tail-flick tests a longer latency is read as antinociception.

This note sets out measurements from patent publication US20130046012A1, “NEW COMPOUNDS, SYNTHESIS AND USE THEREOF IN THE TREATMENT OF PAIN” (LACER, S.A., priority 2010, published 2013).

For orientation: ED50 means the dose at which the effect has come halfway, by size or by number of responders.

Each structure is given as a SMILES string. Counter-ions that a name gives are not always drawn.

In the case of `CC(=O)NCC1(CC(=O)Oc2cccc(C3(O)CCCCC3CN(C)C)c2)CCCCC1` (centres unmarked) [Product of example 18, (1R2R, 1S2S)3(2-((dimethylamino)methyl)-1-hydroxycyclohexyl)phenyl 2-(1-(acetamidomethyl)cyclohexyl)acetate], in the assay with Male Swiss mice [1], the median effective dose (ED50) came to 30.4 µmol/kg.

Take `COC(=O)NCC1(CC(=O)Oc2cccc(C3(O)CCCCC3CN(C)C)c2)CCCCC1` (centres unmarked) [Product of example 14, (1R2R, 1S2S) 3-(2-((dimethylamino)methyl)-1-hydroxycyclohexyl)phenyl 2-(1-((methoxycarbonylamino)methyl)cyclohexyl)acetate]: the ED50 in the assay with Male Swiss mice [1] was found to be 44.5 µmol/kg.

Turning to `CN(C)CC1CCCCC1(O)c1cccc(OC(=O)CC2(CNC(=O)OC(C)(C)C)CCCCC2)c1` (centres unmarked) [Product of example 1, (1R2R, 1S25)-3-(2-((dimethylamino)methyl)-1-hydroxycyclohexyl)phenyl 2-(1-((tert-butoxycarbonylamino)methyl)cyclohexyl)acetate], the ED50 is 35.7 µmol/kg with Male Swiss mice [2] and 39.9 µmol/kg in the assay with Male Swiss mice [1].

For `CCOC(=O)NC[C@H](CC(=O)Oc1cccc(C2(O)CCCCC2CN(C)C)c1)CC(C)C` (stereo partly drawn) [Product of example 23, (1R2R, 1S2S)-(S)-3-(2-((dimethylamino)methyl)-1-hydroxycyclohexyl)phenyl 3-((ethoxycarbonylamino)methyl)-5-methylhexanoate], the ED50 with Male Swiss mice [1] was 75.2 µmol/kg.

In the case of `CN(C)C[C@H]1CCCC[C@]1(O)c1cccc(OC(=O)CC2(CNC(=O)OC(C)(C)C)CCCCC2)c1` [Product of example 2], the results for the ED50 with Male Swiss mice [2] and in the assay on Male Swiss mice [1] were 8 µmol/kg and 17.2 µmol/kg, respectively.

Consider `CCOC(=O)NCC1(CC(=O)Oc2cccc(C3=CCCCC3CN(C)C)c2)CCCCC1` (centres unmarked) [Product of example 20, 3-(6-((dimethylamino)methyl)cyclohex-1-enyl)phenyl 2-(1-((ethoxycarbonylamino)methyl)cyclohexyl)acetate], for which, in the assay with Male Swiss mice [1], the ED50 was 59.7 µmol/kg.

`CN(C)C[C@@H]1CCCC[C@@]1(O)c1cccc(OC(=O)CC2(CNC(=O)OC(C)(C)C)CCCCC2)c1` [Product of example 3]: in the assay on Male Swiss mice [1], the ED50 was determined as 65.9 µmol/kg.

For `CCOC(=O)NCC1(CC(=O)Oc2cccc([C@@H](CC)[C@@H](C)CN(C)C)c2)CCCCC1` [Product of example 22, 3-((2R,3S)-1-(dimethylamino)-2-methylpentan-3-yl)phenyl 2-(1-((ethoxycarbonylamino)methyl)cyclohexyl)acetate], in the assay with Male Swiss mice [1], the ED50 came out at 30.4 µmol/kg.

Regarding `COc1cccc([C@]2(O)CCCC[C@H]2CN(C)C)c1` (single isomer, unassigned) [Tramadol Enantiomer S,S, reference compound], the “FORMALIN TEST (ED50 p.o) Phase II” value in the assay with Male Swiss mice [1] amounted to 233.3 µmol/kg.

On to `CCOC(=O)NCC1(CC(=O)Oc2cccc([C@]3(O)CCCC[C@H]3CN(C)C)c2)CCCCC1` [Product of example 13, 3-((1S,2S)-2-((dimethylamino)methyl)-1-hydroxycyclohexyl)phenyl 2-(1-((ethoxycarbonylamino)methyl)cyclohexyl)acetate], for which the ED50 in the assay with Male Swiss mice [1] is 28 µmol/kg.

Turning to `CCOC(=O)NCC1(CC(=O)Oc2cccc(C3=C(CN(C)C)CCCC3)c2)CCCCC1` [Product of example 19, 3-(2-((dimethylamino)methyl)cyclohex-1-enyl)phenyl 2-(1-((ethoxycarbonylamino)methyl)cyclohexyl)acetate], the ED50 in the assay on Male Swiss mice [1] is 62.7 µmol/kg.

Turning to `CCOC(=O)NC[C@H](CC(=O)Oc1cccc([C@@]2(O)CCCC[C@@H]2CN(C)C)c1)CC(C)C` [Product of example 24, (S)-3-((1R,2R)-2-((dimethylamino)methyl)-1-hydroxycyclohexyl)phenyl 3-((ethoxycarbonylamino)methyl)-5-methylhexanoate], the ED50 in the assay on Male Swiss mice [1] came out at 56.9 µmol/kg.

Consider `CN(C)CC1CCCCC1(O)c1cccc(OC(=O)CC2(CNC(=O)OCc3ccccc3)CCCCC2)c1` (centres unmarked) [Product of example 16, (1R2R, 1S2S)3(2-((dimethylamino)methyl)-1-hydroxycyclohexyl)phenyl 2-(1-((benzyloxycarbonylamino)methyl)cyclohexyl)acetate], for which the ED50 with Male Swiss mice [1] amounted to 37.9 µmol/kg.

Consider `CN(C)CC1CCCCC1(O)c1cccc(OC(=O)CC2(CNC(=O)Oc3ccccc3)CCCCC2)c1` (centres unmarked) [Product of example 17, (1R2R, 1S2S)3(2-((dimethylamino)methyl)-1-hydroxycyclohexyl)phenyl 2-(1-((phenoxycarbonylamino)methyl)cyclohexyl)acetate], for which the ED50 with Male Swiss mice [1] was 39 µmol/kg.

In the case of `COc1cccc([C@@]2(O)CCCC[C@@H]2CN(C)C)c1` (relative stereo) [Tramadol hydrochloride, (1R,2R)-rel-2-[(dimethylamino)methyl]-1-(3-methoxyphenyl) cyclohexanol, reference compound], the values for the ED50 in the assay with Male Swiss mice [2] and in the assay with Male Swiss mice [1] were 66 µmol/kg and 139 µmol/kg, respectively.

Turning to `CCOC(=O)NCC1(CC(=O)Oc2cccc(C3(O)CCCCC3CN(C)C)c2)CCCCC1` (centres unmarked) [Product of example 4, (1R2R, 1S2S) 3-(2-((dimethylamino)methyl)-1-hydroxycyclohexyl)phenyl 2-(1-((ethoxycarbonylamino)methyl)cyclohexyl)acetate], the ED50 in the assay on Male Swiss mice [2] came to 26.3 µmol/kg; in the assay with Male Swiss mice [1] it was 19 µmol/kg.

For the compound `CCOC(=O)NCC1(CC(=O)Oc2cccc([C@@]3(O)CCCC[C@@H]3CN(C)C)c2)CCCCC1` [Product of example 5, 3-((1R,2R)-2-((dimethylamino)methyl)-1-hydroxycyclohexyl)phenyl 2-(1-((ethoxycarbonylamino)methyl)cyclohexyl)acetate], the 50% effective dose (ED50) in the assay on Male Swiss mice [1] worked out at 6 µmol/kg.

Consider `CC(C)OC(=O)NCC1(CC(=O)Oc2cccc(C3(O)CCCCC3CN(C)C)c2)CCCCC1` (centres unmarked) [Product of example 15, (1R2R, 1S2S) 3-(2-((dimethylamino)methyl)-1-hydroxycyclohexyl)phenyl 2-(1-((isopropoxycarbonylamino)methyl)cyclohexyl)acetate], for which the ED50 in the assay with Male Swiss mice [1] amounted to 57.9 µmol/kg.

As for `COc1cccc([C@@]2(O)CCCC[C@@H]2CN(C)C)c1` (single isomer, unassigned) [Tramadol Enantiomer R,R, reference compound], the “FORMALIN TEST (ED50 p.o) Phase II” value with Male Swiss mice [1] came to 126.6 µmol/kg.
